Assay results taken from patent publication US20250195515A1, “COMPOSITION FOR TREATING THE EYE” (BITOP AG, priority 2014, published 2025).

Key:
[1] = Compression of meibomian lipid monolayers on PBS subphase with different ectoine concentrations (surface pressure-area isotherms); type: physicochemical, human
Procedure: Meibomian lipids were obtained from the meibomian glands of four healthy volunteers. The lipids were dissolved in chloroform/methanol (1:1, v/v) and applied to an aqueous subphase (PBS, phosphate-buffered saline solution, pH 7.4, T=20° C.). After an equilibration time of 10-15 min, the monolayers were compressed at 2.9 cm^2/min. The subphase was provided with different ectoine concentrations. The result of the compression of the lipid film on a PBS subphase without ectoine is depicted in FIG. 2A. No phase transitions are observed up to a surface pressure of 20 mN/m. […] Ectoine therefore enlarges the spaces between the molecules.

[2] = Atomic force microscopy (AFM) topography of Langmuir-Blodgett-transferred meibomian lipid layers; type: physicochemical, human
Procedure: The topography of the surface of the lipid layers was examined with the aid of an atomic force microscope (atomic force microscopy, AFM). To this end, the lipid layer was transferred to a solid surface using the Langmuir-Blodgett technique; thereafter, the AFM measurements were carried out at pressures of 5 mN/m, 20 mN/m and 23.5 mN/m and 20° C. At a relatively low pressure of 5 mN/m, it was possible to observe small fibrous structures of up to approx. 5 nm in height distributed over the entire area. Layers of hydrophobic lipids such as cholesteryl esters and triglycerides might be involved here. At higher pressures of 20 mN/m, the number of fibrous structures increased.
In the presence of 100 mM ectoine, droplet-type structures of up to approx. 300 nm in height were observed. At higher ectoine concentrations, the diameter of the droplet-type structures increased.

[3] = tested on: patients suffering from a mild to moderate form of keratoconjunctivitis sicca; experiment: Clinical study, tear break-up time (TBUT); type: in vivo, human
Procedure: (§1) In one study, 64 patients suffering from a mild to moderate form of keratoconjunctivitis sicca were examined. […] The majority (72%) of the patients were female. For at least one eye in each case, the tear break-up time (TBUT), i.e., the time until dry spots reappear on the cornea after blinking, was less than 10 sec. The TBUT was used as the main parameter for the treatment assessment. Over a period of 28 days, 34 patients were treated with an ectoine-containing composition and the other 30 patients with hyaluronic acid as reference. 59 of the patients finished the study as planned; 5 patients left prematurely. On average, the TBUT improved within the 28-day observation period by 2.6 sec (p=0.0011) for ectoine-treated patients and by 1.1 sec (p=0.1686) for the hyaluronic acid-treated patients.

[4] = tested on: patients suffering from a mild to moderate form of keratoconjunctivitis sicca; experiment: Clinical study, OSDI (ocular surface disease index) quality of life; type: in vivo, human; conditions: within the 28-day observation period
Procedure: as §1, with “The quality of life of” for “On average,”, “patients was determined on” for “TBUT improved within”, “basis of the OSDI (ocular surface disease index). The OSDI assessment consists of 12 questions answered by the patients on a scale of 0 to 4 (0=never; 4=always). The higher the OSDI value, the stronger the impairment of the daily life of the disease. Within the” for “28-day”, “period, it was possible to observe a decrease of 17.7 points in the case of the” for “period by 2.6 sec (p=0.0011) for”, “of 17.2 points in the case of” for “by 1.1 sec (p=0.1686) for”

[5] = tested on: patients suffering from a mild to moderate form of keratoconjunctivitis sicca; experiment: Clinical study, lacrimation according to Schirmer's test II; type: in vivo, human
Procedure: In one study, 64 patients suffering from a mild to moderate form of keratoconjunctivitis sicca were examined. […] The majority (72%) of the patients were female. For at least one eye in each case, the tear break-up time (TBUT), i.e., the time until dry spots reappear on the cornea after blinking, was less than 10 sec. The TBUT was used as the main parameter for the treatment assessment. Over a period of 28 days, 34 patients were treated with an ectoine-containing composition and the other 30 patients with hyaluronic acid as reference. 59 of the patients finished the study as planned; 5 patients left prematurely. Lacrimation was examined according to the Schirmer's test II. This was lower for the ectoine patients than for the hyaluronic acid patients both at the start (8.8 mm/5 min compared to 16.0 mm/5 min) and at the end (10.6 mm/5 min compared to 16.8 mm/5 min) of the treatment, it being possible to observe a more distinct improvement for the ectoine-treated patients than for the hyaluronic acid-treated patients (1.8 mm/5 min compared to 0.8 mm/5 min).

[6] = tested on: patients suffering from a mild to moderate form of keratoconjunctivitis sicca; type: in vivo, human; conditions: for tolerability: human, in vivo
Procedure: as §1, with “prematurely. […] Especially” for “prematurely. On average,”, “the sensation of foreign bodies and the sensation of tired eyes were rated as” for “the TBUT”, “improved following” for “improved within”, “the treatment. 78.8% of the” for “the 28-day observation period by 2.6 sec (p=0.0011) for”, “and 71.4% of” for “and by 1.1 sec (p=0.1686) for”, “acid-treated patients would continue use.” for “acid-treated patients.”

Row | Compound | hysteresis of compression-expansion curves ([1]; ectoine in PBS subphase vs without ectoine) | shift of the compression isotherm (area per molecule) ([1]; ectoine in PBS subphase, pH 7.4, 20° C., vs subphase without ectoine, effect is concentration-dependent) | formation of droplet-type structures ([2]; 50 mM ectoine, AFM) | thickness of the lipid layer at the sites of the droplet-type clusters ([2]; 100 mM ectoine in the lacrimal fluid (model of FIG. 1B), approx. 20 nm in the absence of ectoine) | height of droplet-type structures ([2]; 100 mM ectoine, AFM, 20° C.) | diameter of the droplet-type structures ([2]; ectoine concentrations higher than 100 mM, AFM) | improvement of TBUT in patients with severe keratoconjunctivitis sicca and TBUT<5 sec ([3]; 28 days, ectoine compared with hyaluronic acid) | improvement of TBUT on average ([3]; within the 28-day observation period) | decrease of OSDI [4] | lacrimation, Schirmer's test II, at the end of the treatment ([5]; end of the 28-day treatment) | improvement of lacrimation, Schirmer's test II ([5]; end vs start of the 28-day treatment) | lacrimation, Schirmer's test II, at the start of the treatment ([5]; start of the treatment (baseline)) | estimation of the effectiveness of the treatment according to patients' estimates ([6]; after 28-day treatment) | tolerability [6]
1 | CC1=N[C@H](C(=O)O)CCN1 [ectoine, (S)-2-methyl-1,4,5,6-tetrahydropyrimidine-4-carboxylic acid] | no significant differences | isotherm shifts in the direction of a larger area per molecule | comparatively scattered and distinctly smaller | approx. 200 nm | ≤ 300 nm | increased | stronger improvement | 2.6 s | 17.7 points | 10.6 mm/5 min | 1.8 mm/5 min | 8.8 mm/5 min | 0.9 points | generally well tolerated
2 | hyaluronic acid [reference compound] |  |  |  |  |  |  |  |  |  |  |  |  |  | generally well tolerated
